Assay results from patent US20120027822A1, “Process for Producing Rapidly Disintegrating Spheroids (Pellets), Granules and/or Mixtures Thereof” (SPECIFAR S.A., priority 2009, published 2012).

Assay: not given
Details: water; cited from earlier work

Compound	aqueous solubility class (US Pharmacopoeia terms)
COc1ccc2nc([S@@+]([O-])Cc3ncc(C)c(OC)c3C)[nH]c2c1 [Esomeprazole]	slightly soluble or insoluble
CCC1=C(C)CN(C(=O)NCCc2ccc(S(=O)(=O)NC(=O)N[C@H]3CC[C@H](C)CC3)cc2)C1=O [Glimepiride]	practically insoluble
Cc1c(OCC(F)(F)F)ccnc1C[S+]([O-])c1nc2ccccc2[nH]1 (stereo not shown) [Lansoprazole]	practically insoluble
COc1ccc2[nH]c([S+]([O-])Cc3ncc(C)c(OC)c3C)nc2c1 (stereo not shown) [Omeprazole]	very slightly soluble
COc1ccnc(C[S+]([O-])c2nc3ccc(OC(F)F)cc3[nH]2)c1OC (stereo not shown) [Pantoprazole]	freely soluble
COCCCOc1ccnc(C[S+]([O-])c2nc3ccccc3[nH]2)c1C (stereo not shown) [Rabeprazole]	very soluble

Assay: Polymorph study by X-Ray Powder Diffraction (XRPD)
Format: physicochemical
Details: XRPD of powder from spheroids of example 7a versus dihydrate and trihydrate patterns
Procedure: All the formulations described in examples 7a-7h released the API quantitatively in 15 minutes. In addition, a polymorph study was performed and the crystal phase of Esomeprazole Mg powder deriving from the spheroids of example 7a was established through the application of the X-Ray Powder Diffraction (XRPD) technique. The recorded XRD patterns shown in FIG. 2 were compared against the respective patterns of the dihydrate and trihydrate forms provided by the manufacturer. […] None of the characteristic trihydrate reflections, marked with arrows in FIG. 2, could be observed.

Compound	crystal habit after the aqueous pelletization process
COc1ccc2[n-]c([S@@+]([O-])Cc3ncc(C)c(OC)c3C)nc2c1.COc1ccc2[n-]c([S@@+]([O-])Cc3ncc(C)c(OC)c3C)nc2c1.O.O.[Mg+2] [Esomeprazole Magnesium Dihydrate]	without deteriorating the crystal habit
